Measured values taken from patent US20220380306A1, “ASTAXANTHIN ESTERS AND METHODS OF USE THEREOF” (CARDAX,INC., priority 2019, published 2022).

How the values were obtained:
[1] = 20 mg/D rosuvastatin vs. placebo; patients who achieved a reduction in CRP<2.0; cited from earlier work
[2] = Hydrolysis of ADMG compared to ADSa under basic conditions with KOH; format: physicochemical; details: KOH 55.6 molar equivalents, room temperature
Experimental: KOH was added at 55.6 molar equivalents as a solution in 81:9:10 methanol:dichloromethane:water at room temperature. The solution was analyzed using HPLC over various time points for starting diester (A), hydrolyzed monoester (B) and free astaxanthin (C). Byproduct indicates an impurity formed that is none of A, B, or C.

[3] = Hydrolysis of ADMG compared to ADSa in solution or under basic conditions (NaHCO3 / Na2CO3); format: physicochemical; details: 16 hours
Experimental: The mixture was stirred at room temperature or 50° C. The reaction was monitored by HPLC and LCMS after 16 hours. […] “Byproduct” indicates a material that was formed other than the diester, monoester, or free astaxanthin.

IL-1β = IL-1β (Homo sapiens, UniProt P01584); details: cited from earlier work
[4] = methotrexate 15-20 mg/week vs. placebo; cited from earlier work
[5] = methanol + saturated aq Na2CO3, rt
[6] = methanol + saturated aq NaHCO3, 50° C.
[7] = methanol + saturated aq NaHCO3, rt
[8] = subjects with a reduction of CRP<2.0 mg/L (regardless of dose)

For `CC(C)c1nc(N(C)S(C)(=O)=O)nc(-c2ccc(F)cc2)c1/C=C/[C@@H](O)C[C@@H](O)CC(=O)O` [rosuvastatin], the “reduction in vascular events” value [1] is given as 62%.
For `CC1=C(/C=C/C(C)=C/C=C/C(C)=C/C=C/C=C(C)/C=C/C=C(C)/C=C/C2=C(C)C(=O)[C@@H](OC(=O)CN(C)C)CC2(C)C)C(C)(C)C[C@H](OC(=O)CN(C)C)C1=O` [ADMG, Astaxanthin Dimethyl Glycinate Diester], the “A (starting diester)” value ([2]; time 0 hr) was 93.7%, the “B (hydrolyzed monoester)” value ([2]; time 0 hr) was 0.1% and the Byproduct ([2]; time 0 hr) was 0%. The “C (free astaxanthin)” value ([2]; time 0 hr) was 0%, the “A (starting diester)” value ([2]; time 0.07 hr) was 86.4% and the “B (hydrolyzed monoester)” value ([2]; time 0.07 hr) was 7.3%. The Byproduct ([2]; time 0.07 hr) was 0%, the “C (free astaxanthin)” value ([2]; time 0.07 hr) was 0.1% and the “A (starting diester)” value ([2]; time 0.65 hr) was 36.1%. For the same compound, the “B (hydrolyzed monoester)” value ([2]; time 0.65 hr) was 44.9%, the Byproduct ([2]; time 0.65 hr) was 0.1% and the “C (free astaxanthin)” value ([2]; time 0.65 hr) was 13.2%. For the same compound, the “A (starting diester)” value ([2]; time 1.23 hr) was 14.4%, the “B (hydrolyzed monoester)” value ([2]; time 1.23 hr) was 44.6% and the Byproduct ([2]; time 1.23 hr) was 0.8%. The “C (free astaxanthin)” value ([2]; time 1.23 hr) was 34.6%, the “A (starting diester)” value ([2]; time 1.80 hr) was 5.5% and the “B (hydrolyzed monoester)” value ([2]; time 1.80 hr) was 34.2%. The Byproduct ([2]; time 1.80 hr) was 1.4%, the “C (free astaxanthin)” value ([2]; time 1.80 hr) was 53.0% and the “A (starting diester)” value ([2]; time 2.38 hr) was 2.0%. The “B (hydrolyzed monoester)” value ([2]; time 2.38 hr) was 23.4%, the Byproduct ([2]; time 2.38 hr) was 2.0% and the “C (free astaxanthin)” value ([2]; time 2.38 hr) was 66.6%. The “A (starting diester)” value ([2]; time 2.97 hr) was 0.7%, the “B (hydrolyzed monoester)” value ([2]; time 2.97 hr) was 14.9% and the Byproduct ([2]; time 2.97 hr) was 2.7%. The “C (free astaxanthin)” value ([2]; time 2.97 hr) was 75.4%, the “A (starting diester)” value ([2]; time 3.55 hr) was 0.2% and the “B (hydrolyzed monoester)” value ([2]; time 3.55 hr) was 9.2%. For the same compound, the Byproduct ([2]; time 3.55 hr) was 3.4%, the “C (free astaxanthin)” value ([2]; time 3.55 hr) was 80.7% and the “C (free astaxanthin)” value ([3]; methanol + saturated aq Na2CO3, 50° C.) was 92% C. The “B (hydrolyzed monoester)” value [3, 5] was 5% B, the “C (free astaxanthin)” value [3, 5] was 90% C and the “A (starting diester)” value [3, 6] was 33% A. The “B (hydrolyzed monoester)” value [3, 6] was 50% B, the “C (free astaxanthin)” value [3, 6] was 23% C and the “A (starting diester)” value [3, 7] was 64% A. The “B (hydrolyzed monoester)” value [3, 7] was 28% B, the “C (free astaxanthin)” value [3, 7] was 2% C and the “A (starting diester)” value ([3]; methanol, no base, rt) was 75% A. For the same compound, the Byproduct ([3]; methanol, no base, rt) was 21% byproduct.
In the case of “canakinumab: monoclonal antibody that targets IL-1β”, the “deaths from infection (mostly tuberculosis)” value (IL-1β; active treatment groups vs. placebo) is given as “more deaths from infection”, the “CRP and IL-6 levels” value (IL-1β; patients with active treatment) is given as “reduction” and the lipids (IL-1β; patients with active treatment) is given as “no change”. For the same compound, the “reduction in cardiovascular death and all-cause mortality” value (IL-1β; [8]) was 31% and the “reduction in the primary end point (composite of myocardial infarction, stroke, or cardiovascular death)” value (IL-1β; [8]) was 25%.
In the case of “Astaxanthin Sarcosine Diester [ADSa, reference compound]”, the “A (starting diester)” value ([2]; time 0 hr) is reported as 91.4%, the “B (hydrolyzed monoester)” value ([2]; time 0 hr) is reported as 0.5% and the Byproduct ([2]; time 0 hr) is reported as 0%. The “C (free astaxanthin)” value ([2]; time 0 hr) was 0%, the “A (starting diester)” value ([2]; time 0.05 hr) was 24.0% and the “B (hydrolyzed monoester)” value ([2]; time 0.05 hr) was 46.8%. The Byproduct ([2]; time 0.05 hr) was 1.3%, the “C (free astaxanthin)” value ([2]; time 0.05 hr) was 22.2% and the “A (starting diester)” value ([2]; time 0.62 hr) was 0%. For the same compound, the “B (hydrolyzed monoester)” value ([2]; time 0.62 hr) was 0.5%, the Byproduct ([2]; time 0.62 hr) was 3.8% and the “C (free astaxanthin)” value ([2]; time 0.62 hr) was 90.8%. For the same compound, the “A (starting diester)” value ([3]; methanol, no base, rt) was 72% A and the Byproduct ([3]; methanol, no base, rt) was 16% byproduct.
In the case of `CN(Cc1cnc2nc(N)nc(N)c2n1)c1ccc(C(=O)N[C@@H](CCC(=O)O)C(=O)O)cc1` [methotrexate], the “cardiovascular events compared to placebo” value [4] is listed as “did not result in fewer cardiovascular events” and the “levels of IL-1β, IL-6, or CRP” value [4] is listed as “did not reduce”.
